Data: publication PMC9031804, “The Peptide-Drug Conjugate TH1902: A New Sortilin Receptor-Mediated Cancer Therapeutic against Ovarian and Endometrial Cancers” (Cancers, 2022)

Columns and labels:
SKOV3 cells = assay: Cell proliferation, MTT assay, SKOV3; assay type: cell-based; settings: Homo sapiens, SK-OV-3, 96 h, mean ± SD, n = 3 to 5, read-out: IC50, anti-proliferative activity
Protocol: (§1) To assess the effects of docetaxel and TH1902 on ovarian and endometrial cancer cell proliferation, cells (ES-2: 3000 cells/well, SKOV3: 1000 cells/well, A2780: 7000 cells/well, AN3-CA: 7000 cells/well) were first seeded in 96-well plates (Perkin Elmer, Guelph, ON, Canada), then treated with various concentrations of drugs in complete cell culture medium. After 72 h of incubation for ES-2, A2780 and AN3-CA cells, or 96 h for SKOV3 cells, cell proliferation was measured using the 3-(4,5-dimethylthiazol-2-yl)-2,5-diphenyltetrazolium bromide (MTT) as described previously. Analyses were made in quadruplicate for each condition.

[1] = Mice weights, A2780 xenograft study; assay type: in vivo; settings: docetaxel 10 mg/kg IV, three cycles
Protocol: (§2) Tumor xenografts were established by subcutaneous inoculation of 5 × 10^6 cells (ES-2) or 7 × 10^6 cells (SKOV3) in 150 µL of HBSS; other xenografts were established by subcutaneous inoculation of 5 × 10^6 cells (A2780) or 2 × 10^6 cells (AN3-CA) in 150 µL of HBSS/Matrigel (50:50). All cells were injected into the right flanks of immunodeficient mice under light isoflurane anesthesia. The injection schedules and doses of injected substances are detailed in the figures. Briefly, when palpable ES-2, SKOV3 or AN3-CA tumors reached a volume of ~100 mm^3, mice were treated weekly with either vehicle, docetaxel (3.75 or 15 mg/kg) or TH1902 (8.75 or 35 mg/kg) at equivalent docetaxel amounts via intravenous (IV) tail vein injection. Note that three cycles of 15 mg/kg docetaxel is the maximum tolerated dose in mice and that 35 mg/kg TH1902 contains the same quantity of docetaxel (bis-linked to the peptide). […] Tumor growth was monitored by two-dimensional measurements taken with an electronic caliper and tumor volume was calculated according to the following formula: tumor volume (mm^3) = π/6 × length × width^2. Data are expressed as mean ± SEM and were analyzed using GraphPad Prism software. […]

ES-2 cells = assay: Cell proliferation, MTT assay, ES-2; assay type: cell-based; settings: Homo sapiens, 72 h, mean ± SD, n = 3 to 5, read-out: IC50, anti-proliferative activity
Protocol: as §1

[2] = ref [38]; cited from earlier work
Text: Taxanes, mainly paclitaxel and docetaxel, are well-known microtubule stabilizers used in various cancer including ovarian and endometrial cancer first-line therapies in the last thirty years. […] Here, the new chemical entity TH1902 is distinct from the docetaxel molecule as it selectively exploits SORT1’s internalization properties to trigger cell apoptosis in ES-2 and ...

[3] = tested on: SKOV3 ovarian cancer xenografts; assay: SKOV3 ovarian cancer xenograft tumor growth; assay type: in vivo, human tumor in female athymic nude mice; settings: for Tumor progression, Size Increase (x-Fold Day-0): vehicle endpoint Day 28, n = 6 mice/group
Text: (§3) Animals were obtained from Charles River Laboratories, Inc. and allowed to acclimate for 5 days before experiments. Female CD-1 nude mice (Crl:CD1-Foxn1^nu, 4–6 weeks old; ES-2) or athymic nude mice (Crl:NU(NCr)-Foxn1^nu, 4–6 weeks old; SKOV3, A2780, AN3-CA) were used for the xenograft tumor models. Mice were maintained in a pathogen-free environment and handled in accordance with the Guidelines of the Canadian Council on Animal Care. Animal protocols were approved by the Institutional Animal Care and Use Committee of Université du Québec à Montréal (0620-C1R1-897-0621).
Tumor xenografts were established by subcutaneous inoculation of 5 × 10^6 cells (ES-2) or 7 × 10^6 cells (SKOV3) in 150 µL of HBSS; other xenografts were established by subcutaneous inoculation of 5 × 10^6 cells (A2780) or 2 × 10^6 cells (AN3-CA) in 150 µL of HBSS/Matrigel (50:50). All cells were injected into the right flanks of immunodeficient mice under light isoflurane anesthesia. The injection schedules and doses of injected substances are detailed in the figures. Briefly, when palpable ES-2, SKOV3 or AN3-CA tumors reached a volume of ~100 mm^3, mice were treated weekly with either vehicle, docetaxel (3.75 or 15 mg/kg) or TH1902 (8.75 or 35 mg/kg) at equivalent docetaxel amounts via intravenous (IV) tail vein injection. Note that three cycles of 15 mg/kg docetaxel is the maximum tolerated dose in mice and that 35 mg/kg TH1902 contains the same quantity of docetaxel (bis-linked to the peptide). In A2780 xenografts, when palpable tumors reached a volume of ~250 mm^3, mice were treated with either vehicle, paclitaxel (10 mg/kg, IV), carboplatin (40 mg/kg, intraperitoneal (IP)), docetaxel (10 mg/kg, IV) or TH1902 (23 mg/kg, IV) bi-weekly as single agents or once on Day-0 as combinations with carboplatin. […] Tumor growth was monitored by two-dimensional measurements taken with an electronic caliper and tumor volume was calculated according to the following formula: tumor volume (mm^3) = π/6 × length × width^2. Data are expressed as mean ± SEM and were analyzed using GraphPad Prism software.
(§4) Figure 6 Effects of docetaxel and TH1902 on ES-2 and SKOV3 ovarian cancer xenografts. […] Immunodeficient mice bearing subcutaneous ES-2 (A) or SKOV3 (B) tumors were intravenously injected weekly with either vehicle, docetaxel (at its MTD and quarter MTD doses; 15 and 3.75 mg/kg, respectively), or TH1902 (at a dosage which contains a quantity of bound docetaxel equal to the docetaxel doses; 35 and 8.75 mg/kg, respectively), as described in the methods section. Mice in the ES-2 study were euthanized at vehicle group endpoint (Day 18), whereas indicated groups in SKOV3 study were monitored for a prolonged period up to Day 46 post start of treatments.

[4] = Mice weights, AN3-CA xenograft study; assay type: in vivo; settings: docetaxel high dose 15 mg/kg, reversed when dosage was halved
Protocol: as §2

[5] = mice; three (weekly) cycles; ref [31]; cited from earlier work
[6] = tested on: AN3-CA endometrial cancer xenografts; assay: AN3-CA endometrial cancer xenograft tumor growth; assay type: in vivo, human tumor in female athymic nude mice; settings: for Tumor progression, Size Increase (x-Fold Day-0): vehicle group endpoint Day 14, n = 6 mice/group
Text: as §3
(§5) Tumor xenografts were established by subcutaneous inoculation of 5 × 10^6 cells (ES-2) or 7 × 10^6 cells (SKOV3) in 150 µL of HBSS; other xenografts were established by subcutaneous inoculation of 5 × 10^6 cells (A2780) or 2 × 10^6 cells (AN3-CA) in 150 µL of HBSS/Matrigel (50:50). All cells were injected into the right flanks of immunodeficient mice under light isoflurane anesthesia. The injection schedules and doses of injected substances are detailed in the figures. Briefly, when palpable ES-2, SKOV3 or AN3-CA tumors reached a volume of ~100 mm^3, mice were treated weekly with either vehicle, docetaxel (3.75 or 15 mg/kg) or TH1902 (8.75 or 35 mg/kg) at equivalent docetaxel amounts via intravenous (IV) tail vein injection. Note that three cycles of 15 mg/kg docetaxel is the maximum tolerated dose in mice and that 35 mg/kg TH1902 contains the same quantity of docetaxel (bis-linked to the peptide). In A2780 xenografts, when palpable tumors reached a volume of ~250 mm^3, mice were treated with either vehicle, paclitaxel (10 mg/kg, IV), carboplatin (40 mg/kg, intraperitoneal (IP)), docetaxel (10 mg/kg, IV) or TH1902 (23 mg/kg, IV) bi-weekly as single agents or once on Day-0 as combinations with carboplatin. For combination treatments, both taxanes and TH1902 were injected 1 h following carboplatin administrations at the doses previously described. Injectable solutions were prepared as follows: TH1902 was solubilized at 10 mg/mL in 10% Tween-80 in D5W (pH 4.3, w/v) then further diluted with D5W; docetaxel was solubilized at 25 mg/mL in ethanol and Tween-80 (50/50, v/v) then further diluted with D5W; paclitaxel was solubilized at 25 mg/mL in ethanol and Cremophor EL (50/50, v/v) then further diluted in saline; carboplatin was solubilized at 50 mg/mL in water then further diluted in a solution of 30% PEG400 and 5% Tween-80 in D5W (w/v); vehicle composition and preparation mimicked highest dose of TH1902 preparation. Tumor growth was monitored by two-dimensional measurements taken with an electronic caliper and tumor volume was calculated according to the following formula: tumor volume (mm^3) = π/6 × length × width^2. Data are expressed as mean ± SEM and were analyzed using GraphPad Prism software.

A2780 cells = assay: Cell proliferation, MTT assay, A2780; assay type: cell-based; settings: Homo sapiens, 72 h, mean ± SD, n = 3 to 5, read-out: IC50, anti-proliferative activity
Protocol: as §1

[7] = tested on: A2780 ovarian cancer xenografts; assay: A2780 ovarian cancer xenograft tumor growth; assay type: in vivo, human tumor in female athymic nude mice; settings: for Tumor progression, Size Increase (x-Fold Day-0): vehicle group endpoint, n = 5 mice/group
Text: as §3, §5
Figure 8 Effects of TH1902 and carboplatin combinations on A2780 ovarian cancer xenografts. A2780 cells were subcutaneously implanted in the flanks of athymic nude mice. Tumor volume measurements following bi-weekly administrations of (A) vehicle, docetaxel, TH1902, paclitaxel or carboplatin as single agents, or (B) administered once in combination using the same dosage as described in the methods section. Colored dots below indicate drug treatments for all groups. Data are represented as mean ± SEM (n = 5 mice/group).

[8] = Mice weights, SKOV3 xenograft study; assay type: in vivo; settings: docetaxel 15 mg/kg, three weekly cycles
Protocol: as §2

[9] = Mice weights, ES-2 xenograft study; assay type: in vivo; settings: ES-2 study
[10] = tested on: ES-2 ovarian cancer xenografts; assay: ES-2 ovarian cancer xenograft tumor growth; assay type: in vivo, human tumor in female CD-1 nude mice; settings: for Tumor progression, Size Increase (x-Fold Day-0): vehicle group endpoint Day 18, n = 6 mice/group
Text: as §3
Tumor xenografts were established by subcutaneous inoculation of 5 × 10^6 cells (ES-2) or 7 × 10^6 cells (SKOV3) in 150 µL of HBSS; other xenografts were established by subcutaneous inoculation of 5 × 10^6 cells (A2780) or 2 × 10^6 cells (AN3-CA) in 150 µL of HBSS/Matrigel (50:50). All cells were injected into the right flanks of immunodeficient mice under light isoflurane anesthesia. The injection schedules and doses of injected substances are detailed in the figures. […] Note that three cycles of 15 mg/kg docetaxel is the maximum tolerated dose in mice and that 35 mg/kg TH1902 contains the same quantity of docetaxel (bis-linked to the peptide). […] Tumor growth was monitored by two-dimensional measurements taken with an electronic caliper and tumor volume was calculated according to the following formula: tumor volume (mm^3) = π/6 × length × width^2. Data are expressed as mean ± SEM and were analyzed using GraphPad Prism software.
as §4, with “Mice in the ES-2 study were euthanized at vehicle group endpoint (Day 18), whereas indicated groups in SKOV3 study were monitored for a prolonged period up to Day 46 post start of treatments.” left out

[11] = single agent 10 mg/kg IV bi-weekly
[12] = single agent 40 mg/kg IP bi-weekly

CC(=O)O[C@@]12CO[C@@H]1C[C@H](O)[C@@]1(C)C(=O)[C@H](O)C3=C(C)[C@@H](OC(=O)[C@H](O)[C@@H](NC(=O)OC(C)(C)C)c4ccccc4)C[C@@](O)([C@@H](OC(=O)c4ccccc4)[C@H]21)C3(C)C [Docetaxel, docetaxel]
IC50 (SKOV3 cells): 0.61 ± 0.1 nM
Body weight loss, in words [1]: significant body weight loss
IC50 (ES-2 cells): 2.24 ± 0.99 nM
Water solubility [2]: very poor water solubility
Tumor progression, Size Increase (x-Fold Day-0) ([3]; docetaxel 3.75 mg/kg IV weekly): 9.70 x-Fold Day-0
Tumor progression, Size Increase (x-Fold Day-0) ([3]; docetaxel 15 mg/kg IV weekly): 2.25 x-Fold Day-0
Tumor regrowth on prolonged monitoring ([3]; docetaxel high dose 15 mg/kg, prolonged monitoring): could not sustain this effect, which is marked by tumor regrowth
Tumor growth inhibition ([3]; docetaxel high dose 15 mg/kg, vs vehicle endpoint Day 28): 84%
Body weight loss, in words [4]: Rapid weight loss
Maximum tolerated dose [5]: 15 mg/kg
Tumor progression, Size Increase (x-Fold Day-0) ([6]; docetaxel 3.75 mg/kg IV weekly): 12.07 x-Fold Day-0
Tumor progression, Size Increase (x-Fold Day-0) ([6]; docetaxel 15 mg/kg IV weekly): 0.79 x-Fold Day-0
Tumor response on prolonged monitoring ([6]; docetaxel high dose 15 mg/kg (halved for final two treatments), before end of treatments): unresponsive and regrew before the end of treatments
Tumor regression ([6]; docetaxel high dose 15 mg/kg, vs vehicle endpoint): induced tumor regressions
IC50 (A2780 cells): 1.76 ± 0.38 nM
Tumor growth inhibition [7, 11]: 43%
Tumor progression, Size Increase (x-Fold Day-0) [7, 11]: 4.13 x-Fold Day-0
Body weight loss [8]: > 10%
Body weight loss, in words [8]: severe weight loss
Tolerability / body weight ([9]; docetaxel high dose 15 mg/kg, three weekly cycles, vs initial weight): small weight loss
Tolerability / body weight ([9]; docetaxel low dose 3.75 mg/kg weekly): well-tolerated with slight weight gain
Tumor progression, Size Increase (x-Fold Day-0) ([10]; docetaxel 3.75 mg/kg IV weekly): 10.08 x-Fold Day-0
Tumor progression, Size Increase (x-Fold Day-0) ([10]; docetaxel 15 mg/kg IV weekly): 8.31 x-Fold Day-0
Effect on tumor growth ([10]; docetaxel, both 3.75 and 15 mg/kg IV weekly): produced little effect

N.N.O=C([O-])C1(C(=O)[O-])CCC1.[Pt+2] [Carboplatin, carboplatin]
Tumor growth inhibition [7, 12]: 38%
Tumor progression, Size Increase (x-Fold Day-0) [7, 12]: 4.21 x-Fold Day-0
